Reference: patent publication EP4745145A1, “SALT OF THIAZOLOPYRAZINE COMPOUND OR CRYSTAL THEREOF AND USE THEREOF” (Simcere Zaiming Pharmaceutical Co., Ltd., priority 2023, dated 2025)
Counter-ions that a name gives are not always drawn.

How the values were obtained:
Format in all cases: physicochemical
[1] = Influencing factor experiment (stability under high temperature, high humidity, light)
Experimental: (§1) Each test sample was placed under high temperature (60 °C), high humidity (92.5%), light (7000 lux), or accelerated (40 °C, 75% RH) conditions using a 2 mL screw-thread sample vial in an open state; each sample was placed with packaging (2 layers of medicinal low-density polyethylene bags + 1 layer of polyester/aluminum/polyethylene medicinal composite film bag) under light (7000 lux) or accelerated (40 °C, 75% RH) conditions to investigate the stability of the sample.

[2] = Accelerated experiment (stability at 40 °C, 75% RH)
Experimental: as §1

[3] = Solubility experiment in water
Experimental: The thermodynamic solubility of the compounds of the present disclosure was determined using the following test method.
The thermodynamic solubility of the compounds of the present disclosure in water was investigated. Water (1000 µL) was measured and placed into a 1 mL transparent glass tube with a stopper. An appropriate amount of each sample was weighed and added to saturate the solution, and the solution was shaken to disperse the sample. […] Then, an appropriate amount of the sample was taken, filtered through a microporous filter membrane, and subjected to content determination using high-performance liquid chromatography with an external standard method. The thermodynamic solubility of each compound in water (µg/mL) was calculated.

[4] = Hygroscopicity experiment (dynamic vapor sorption); details: 80.0% RH, 25 °C
Experimental: Test conditions for the instruments used in the experiments of the present disclosure: • 1. X-ray powder diffraction • Instrument model: Bruker D8 Focus • X-ray light source: Cu Kα • Kα1 (Å): 1.54060; • Wavelength λ (Å): 1.54060 • Slit (°): 2.5 • Scan mode: θ/2θ, scan range: 3-40° (2θ angle) • Retention time (s): 0.12 • Scanning step length (° 2θ): 0.01 • Voltage: 40 kV • Current: 40 mA • 2. Differential scanning calorimeter • Instrument model: Discovery DSC 2500 • Purging gas: nitrogen • Sample tray: aluminum tray, non-sealing gland • Method: linear heating • Ramping rate: 10 °C/min • Temperature range: 30 °C-400 °C • 3. Thermogravimetric analyzer • Instrument model: Discovery TA 55 • Purging gas: nitrogen • Sample tray: platinum, open • Method: linear heating • Ramping rate: Ramp from a starting temperature of 30 °C to 400 °C at a rate of 10 °C/min • Temperature range: 30 °C-400 °C • 4. Dynamic vapor sorption instrument • Instrument model: DVS Intrinsic. • DVS parameters: • Temperature: 25 °C; • Equilibrium: dm/dt = 0.002%/min • RH (%) test gradient: 10% • Range of RH (%) test gradient: 0%-90%-0%. • 5. Ion chromatography • Instrument model: Thermo Fisher Integrion, No. IC001 • Test method: Conductivity […] • Separation column: Dionex IonpacTM CS12 Guard 4 × 250 mm • Eluent: 20 mM methanesulfonic acid solution • Flow rate: 1.0 mL/min
• (1) Experimental instrument: dynamic vapor sorption DVS Intrinsic. • (2) Experimental conditions: Each test sample was taken and placed in a DVS sample pan for testing. • (3) DVS parameters: • Temperature: 25 °C; • Equilibrium: dm/dt = 0.002%/min • RH (%) test gradient: 10% • Range of RH (%) test gradient: 0%-90%-0%.

[5] = Light (7000 lux, packaged), 10d
[6] = Light (7000 lux, packaged), 32d
[7] = Accelerated (40 °C), packaged, 14d
[8] = Accelerated (40 °C), packaged, 32d

COc1ccc(Cl)cc1-c1cc(C)ncc1C(=O)Nc1nc2ncc(-c3ccc(C#N)cc3)nc2s1 [Amorphous form of sodium salt of compound of formula I]
Purity ([1]; 0 h, 0d): 99.31%
Total impurities ([1]; 0 h, 0d): 0.52%
Purity ([1]; High humidity (92.5% RH), 11d): 98.89%
Total impurities ([1]; High humidity (92.5% RH), 11d): 1.11%
Purity ([1]; High temperature (60 °C), 11d): 99.23%
Total impurities ([1]; High temperature (60 °C), 11d): 0.77%
Purity ([1]; Light (7000 lux, open), 7d): 97.57%
Total impurities ([1]; Light (7000 lux, open), 7d): 2.43%
Purity ([2]; 0 h, 0d): 99.31%
Total impurities ([2]; 0 h, 0d): 0.52%
Purity ([2]; Accelerated (40 °C), open, 7d): 99.33%
Total impurities ([2]; Accelerated (40 °C), open, 7d): 0.67%
Dynamic solubility in water ([3]; 1h, 60 min): 1.57 µg/mL
Dynamic solubility in water ([3]; 2h, 120 min): 4.37 µg/mL
Dynamic solubility in water ([3]; 4h, 240 min): 44.68 µg/mL
Dynamic solubility in water ([3]; 24h, 1440 min): 0.72 µg/mL

COc1ccc(Cl)cc1-c1cc(C)ncc1C(=O)Nc1nc2ncc(-c3ccc(C#N)cc3)nc2s1 [Crystal form B]
Purity ([1]; 0 h, 0d): 98.89%
Total impurities ([1]; 0 h, 0d): 1.11%
Purity ([1]; High humidity (92.5% RH), 7d): 98.60%
Total impurities ([1]; High humidity (92.5% RH), 7d): 1.40%
Purity ([1]; High humidity (92.5% RH), 14d): 98.89%
Total impurities ([1]; High humidity (92.5% RH), 14d): 1.11%
Purity ([1]; High humidity (92.5% RH), 32d): 98.83%
Total impurities ([1]; High humidity (92.5% RH), 32d): 1.17%
Purity ([1]; High temperature (60 °C), 7d): 98.98%
Total impurities ([1]; High temperature (60 °C), 7d): 1.02%
Purity ([1]; High temperature (60 °C), 14d): 98.93%
Total impurities ([1]; High temperature (60 °C), 14d): 1.07%
Purity ([1]; High temperature (60 °C), 32d): 98.84%
Total impurities ([1]; High temperature (60 °C), 32d): 1.16%
Purity ([1]; Light (7000 lux, open), 7d): 98.84%
Total impurities ([1]; Light (7000 lux, open), 7d): 1.16%
Purity ([1]; Light (7000 lux, open), 14d): 98.85%
Total impurities ([1]; Light (7000 lux, open), 14d): 1.15%
Purity ([1]; Light (7000 lux, open), 32d): 98.73%
Total impurities ([1]; Light (7000 lux, open), 32d): 1.27%
Purity [1, 5]: 98.90%
Total impurities [1, 5]: 1.10%
Purity [1, 6]: 98.90%
Total impurities [1, 6]: 1.10%
Purity ([2]; 0 h, 0d): 98.89%
Total impurities ([2]; 0 h, 0d): 1.11%
Purity ([2]; Accelerated (40 °C), open, 7d): 98.84%
Total impurities ([2]; Accelerated (40 °C), open, 7d): 1.16%
Purity ([2]; Accelerated (40 °C), open, 14d): 98.87%
Total impurities ([2]; Accelerated (40 °C), open, 14d): 1.13%
Purity ([2]; Accelerated (40 °C), open, 32d): 98.88%
Total impurities ([2]; Accelerated (40 °C), open, 32d): 1.12%
Purity [2, 7]: 98.87%
Total impurities [2, 7]: 1.13%
Purity [2, 8]: 98.82%
Total impurities [2, 8]: 1.18%
Dynamic solubility in water ([3]; 1h): <0.5 µg/mL
Dynamic solubility in water ([3]; 2h): <0.5 µg/mL
Dynamic solubility in water ([3]; 4h): <0.5 µg/mL
Dynamic solubility in water ([3]; 24h): 0.77 µg/mL
weight gain due to moisture absorption [4]: 1.5%

COc1ccc(Cl)cc1-c1cc(C)ncc1C(=O)Nc1nc2ncc(-c3ccc(C#N)cc3)nc2s1 [Crystal form A]
Purity ([1]; 0 h, 0d): 99.21%
Total impurities ([1]; 0 h, 0d): 0.79%
Purity ([1]; High humidity (92.5% RH), 7d): 99.26%
Total impurities ([1]; High humidity (92.5% RH), 7d): 0.74%
Purity ([1]; High humidity (92.5% RH), 14d): 99.20%
Total impurities ([1]; High humidity (92.5% RH), 14d): 0.80%
Purity ([1]; High humidity (92.5% RH), 32d): 99.21%
Total impurities ([1]; High humidity (92.5% RH), 32d): 0.79%
Purity ([1]; High temperature (60 °C), 7d): 99.23%
Total impurities ([1]; High temperature (60 °C), 7d): 0.77%
Purity ([1]; High temperature (60 °C), 14d): 99.17%
Total impurities ([1]; High temperature (60 °C), 14d): 0.83%
Purity ([1]; High temperature (60 °C), 32d): 99.15%
Total impurities ([1]; High temperature (60 °C), 32d): 0.85%
Purity ([1]; Light (7000 lux, open), 7d): 99.11%
Total impurities ([1]; Light (7000 lux, open), 7d): 0.89%
Purity ([1]; Light (7000 lux, open), 14d): 98.75%
Total impurities ([1]; Light (7000 lux, open), 14d): 1.25%
Purity ([1]; Light (7000 lux, open), 32d): 98.24%
Total impurities ([1]; Light (7000 lux, open), 32d): 1.76%
Purity [1, 5]: 99.19%
Total impurities [1, 5]: 0.81%
Purity [1, 6]: 99.22%
Total impurities [1, 6]: 0.78%
Purity ([2]; 0 h, 0d): 99.21%
Total impurities ([2]; 0 h, 0d): 0.79%
Purity ([2]; Accelerated (40 °C), open, 7d): 99.21%
Total impurities ([2]; Accelerated (40 °C), open, 7d): 0.79%
Purity ([2]; Accelerated (40 °C), open, 14d): 99.17%
Total impurities ([2]; Accelerated (40 °C), open, 14d): 0.83%
Purity ([2]; Accelerated (40 °C), open, 32d): 99.18%
Total impurities ([2]; Accelerated (40 °C), open, 32d): 0.82%
Purity [2, 7]: 99.19%
Total impurities [2, 7]: 0.81%
Purity [2, 8]: 99.19%
Total impurities [2, 8]: 0.81%
Dynamic solubility in water ([3]; 1h, 60 min): 2081.71 µg/mL
Dynamic solubility in water ([3]; 2h, 120 min): 1590.35 µg/mL
Dynamic solubility in water ([3]; 4h, 240 min): 1441.04 µg/mL
Dynamic solubility in water ([3]; 24h, 1440 min): 27.01 µg/mL
weight gain due to moisture absorption [4]: 1.6%

COc1ccc(Cl)cc1-c1cc(C)ncc1C(=O)Nc1nc2ncc(-c3ccc(C#N)cc3)nc2s1 [Crystal form C]
Purity ([1]; 0 h, 0d): 99.2%
Total impurities ([1]; 0 h, 0d): 0.80%
Purity ([1]; High humidity (92.5% RH), 7d): 99.21%
Total impurities ([1]; High humidity (92.5% RH), 7d): 0.79%
Purity ([1]; High humidity (92.5% RH), 14d): 99.20%
Total impurities ([1]; High humidity (92.5% RH), 14d): 0.80%
Purity ([1]; High temperature (60 °C), 7d): 99.26%
Total impurities ([1]; High temperature (60 °C), 7d): 0.74%
Purity ([1]; High temperature (60 °C), 14d): 99.22%
Total impurities ([1]; High temperature (60 °C), 14d): 0.78%
Purity ([1]; Light (7000 lux, open), 7d): 98.29%
Total impurities ([1]; Light (7000 lux, open), 7d): 1.71%
Purity ([1]; Light (7000 lux, open), 14d): 97.16%
Total impurities ([1]; Light (7000 lux, open), 14d): 2.84%
Purity ([2]; 0 h, 0d): 99.2%
Total impurities ([2]; 0 h, 0d): 0.8%
Purity ([2]; Accelerated (40 °C), open, 7d): 99.20%
Total impurities ([2]; Accelerated (40 °C), open, 7d): 0.80%
Purity ([2]; Accelerated (40 °C), open, 14d): 99.21%
Total impurities ([2]; Accelerated (40 °C), open, 14d): 0.79%
Dynamic solubility in water ([3]; 1h, 60 min): 857.52 µg/mL
Dynamic solubility in water ([3]; 4h, 240 min): 1337.74 µg/mL
Dynamic solubility in water ([3]; 24h, 1440 min): 108.15 µg/mL
weight gain due to moisture absorption [4]: -4.3%

COc1ccc(Cl)cc1-c1cc(C)ncc1C(=O)Nc1nc2ncc(-c3ccc(C#N)cc3)nc2s1 [Crystal form E]
Purity ([1]; 0 h, 0d): 99.39%
Total impurities ([1]; 0 h, 0d): 0.52%
Purity ([1]; High humidity (92.5% RH), 11d): 99.48%
Total impurities ([1]; High humidity (92.5% RH), 11d): 0.52%
Purity ([1]; High temperature (60 °C), 11d): 99.25%
Total impurities ([1]; High temperature (60 °C), 11d): 0.75%
Purity ([1]; Light (7000 lux, open), 7d): 99.24%
Total impurities ([1]; Light (7000 lux, open), 7d): 0.76%
physical stability ([1]; high humidity (92.5% RH)): relatively poor physical stability
Purity ([2]; 0 h, 0d): 99.39%
Total impurities ([2]; 0 h, 0d): 0.52%
Purity ([2]; Accelerated (40 °C), open, 7d): 99.49%
Total impurities ([2]; Accelerated (40 °C), open, 7d): 0.51%
physical stability ([2]; accelerated (40 °C, 75% RH)): relatively poor physical stability
Dynamic solubility in water ([3]; 1h, 60 min): <0.5 µg/mL
Dynamic solubility in water ([3]; 2h, 120 min): 1.03 µg/mL
Dynamic solubility in water ([3]; 4h, 240 min): 2.26 µg/mL
Dynamic solubility in water ([3]; 24h, 1440 min): 2.72 µg/mL
weight gain due to moisture absorption [4]: 2.5%
